# According to patent US9642922B2, “Caspase-triggered nano-aggregation probes and methods of use” (The Board of Trustees of the Leland Stanford Junior …, priority 2013, dated 2017):
# Numbered stars: 1 amine (or outer) side, 2 acyl side, 3 side chain; on linkers, the order of the positions; unused ones are H or OH. Square brackets hold non-standard residues; d marks the D form. Peptide text beside a SMILES is read from it. * marks the point of attachment. DOTA = O=C(O)CN1CCN(CC(=O)O)CCN(CC(=O)*)CCN(CC(=O)O)CC1; X1 = O=C(C1CSC(c2nc3ccc(N[*:1])cc3s2)=N1)[*:2]; X2 = N#Cc1ccc2cc(OCCCN*)ccc2n1; SEt = CCS*
# How the values were obtained:
# [1] = tested on: subcutaneous HeLa tumors; experiment: In vivo fluorescence imaging of DOX-treated HeLa tumor-bearing mice; set-up: species or system mouse
# Procedure: C-SNAF or either of the control probes (5 nmol) was administered intravenously to tumor-bearing mice and whole animal fluorescence was longitudinally monitored using a Maestro fluorescence imager.
# To establish tumors in 6-week-old female nu/nu mice, 2×10^6 HeLa cells suspended in 50 μL of a 50% v/v mixture of Matrigel in supplemented DMEM (10% FBS, 1% penstrep) were injected subcutaneously in the shoulders of the mouse. Tumors were grown until a single aspect was 0.7 to 0.9 cm (approximately 10-15 days), and then treatment consisting of 8 mg/kg DOX or saline was initiated. Treatments were administered intravenously once every 4 d for a total of three times. Total mouse body weight and tumor size (width and length by caliper) was measured every other day. Tumor volumes were calculated assuming ellipsoid shape with the formula (l×w^2)/2.
# Two days following the final treatment, 5 nmol probe in saline was injected intravenously and fluorescence imaging began immediately on a Maestro hyperspectral fluorescent imaging system (PerkinElmer, Mass., USA) using a 635±25 nm excitation filter and a 675 nm long-pass emission filter, with images acquired from 670 to 900 nm. Tissue autofluorescence and Cy5.5 fluorescence were deconvolved, and tumor fluorescence intensity was quantified by region of interest measurement using Nuance v.3.0.1.2 software (Perkin Elmer, Mass., USA).
# [2] = target: T1, legumain (Homo sapiens, UniProt Q99538); experiment: HPLC enzyme specificity assay of C-SNAF, legumain; type: biochemical; conditions: 25 μM probe, 0.735 μg/ml enzyme, pH 5.5
# T1 construct: purchased R&D Systems; host or cells: mouse myeloma cell line
# Procedure: The specificity of C-SNAF towards other representative cysteine proteases such as caspase-7, caspase-9, cathepsin B, and legumain was examined.
# Caspase (human, recombinant from E. coli) assays were performed for caspase-3 (4.9×10^−3 U; 7.35×10^−4 mg, Sigma), −7 (18.3 U; 7.35×10^−4 mg, Calbiochem), and −9 (0.3 U; 7.35×10^−4 mg, Calbiochem). All caspase assays were conducted in caspase buffer with 50 mM HEPES, 100 mM NaCl, 1 mM EDTA, 10 mM TCEP, 10% glycerol, and 0.1% CHAPS at pH 7.4. Cathepsin B (human liver; 0.27 U; 7.35×10^−4 mg, Calbiochem) and Legumain (human, recombinant from mouse myeloma cell line; >250 pmol/min/μg; 7.35×10^−4 mg, R&D Systems) were conducted in reaction buffer with 50 mM sodium acetate, 50 mM NaCl, 0.5 mM EDTA and 10 mM TCEP at pH 5.5. C-SNAF was diluted in the respective enzyme reaction buffer (25 μM, 1 mL) and remained at room temperature for 10 min, to which was then added the respective enzymes. Reactions were performed at 37° C., and monitored by HPLC hourly. The percentage conversion of the reaction was calculated based on the percentage of peak area of C-SNAF-cycl in the HPLC trace at 675 nm UV detection, which indicated the efficacy of enzyme cleavage of C-SNAF.
# [3] = tested on: DOX-induced apoptotic HeLa cells; experiment: Flow cytometry of DOX-induced apoptotic HeLa cells labeled with probes; type: cell-based, human; conditions: 5 μM DOX, 2 μM probe, 24 h
# Procedure: For the DOX-induced apoptotic cells, HeLa cells in 12-well plates were co-incubated with DOX (5 μM) and 2 μM C-SNAF, L-ctrl and D-ctrl, or 2 μM C-SNAF together with 50 μM Z-VAD-fmk for 24 h. After washing with PBS (1×) three times, the cells pellets were resuspended in 300 μL PBS, and applied for flow cytometry analysis using the Cy5.5 channels. The cell number for each flow cytometry analysis was approximately 5×10^3 to 10^4, and the data was processed using FlowJo software.
# [4] = Water proton r1 relaxivity measurement; type: physicochemical; conditions: 1 T
# Procedure: Water proton r1 relaxivities of probe 15 and 1-ctrl (19) before and after caspase-3 incubation were then measured at 1, 1.5 and 3 T. For comparison, the isolated cyclized products 2-I and 2-II were also measured.
# A series of solutions containing contrast agents with five different concentrations (0.05-0.5 mM) in Caspase buffer (pH 7.4) were treated with or without Casp-3 (50 nM) at 37° C. overnight. The solutions were placed in PCR tubes, bundled together, and MR-imaged at 1 T (Bruker Icon, Bruker BioSpin Corp.), […], 1.5 and 3 T (Signa HDx, GE Healthcare) at room temperature.
# The scanning procedure began with a localizer and then consisted of a series of inversion-prepared fast spin echo scans, identical in all aspects (TR 8000 ms (6000 ms for Bruker Icon), TE minimum, field of view 6 cm, slice thickness 2 mm, matrix 128×128, NEX 1) except for the inversion time (TI) that was varied as: 4000, 2400, 1200, 800, 600, 400, 300, 200, 100, and 50 ms. For quantitative data analysis, the acquired MR images were transferred as DICOM images to an offline workstation, and signal intensities were extracted from each of the 5 samples at each of the 10 TI times by manual region of interest (ROI) placement and voxel averaging within the ROI.
# Signal intensity versus TI relationships were fit to the following exponential T1 recovery model by non-linear least squares regression: SI (TI)=S0[1−2*exp(−TI/T1)+exp(−TR/T1)]. Relaxation rates (R1) were determined as 1/T1. Longitudinal relaxivities (r1, units of mM^−1s^−1) were calculated as the slope of R1 vs [Gd] after the determination of true Gd concentration of each sample by the ICP-MS measurement.
# [5] = target: T1, legumain; experiment: T1 measurement of probe 15 with legumain; type: biochemical; conditions: probe 208 μM, protease 50 nM, 1 T
# Procedure: The enzyme specificity of probe 15 was studied by measuring the T1 value resulting from probe incubation (208 μM) with any of five relevant subcellular proteases (caspase-3, -7, -9, cathepsin B and legumain) in enzyme buffer. […] The reduced T1 value in solution was inhibited by the caspase inhibitor Z-VAD-fmk (50 μM).
# Cathepsin B (human liver; 0.27 U; 7.35×10^−4 mg, Calbiochem) and Legumain (human, recombinant from mouse myeloma cell line; >250 pmol/min/μg; 7.35×10^−4 mg, R&D Systems) were conducted in reaction buffer with 50 mM sodium acetate, 50 mM NaCl, 0.5 mM EDTA and 10 mM TCEP at pH 5.5. The C-SNAF was diluted in the respective enzyme reaction buffer (25 μM, 1 mL) and remained at room temperature for 10 min, to which was added respective enzymes.
# T1 sequence (Q99538 18-323): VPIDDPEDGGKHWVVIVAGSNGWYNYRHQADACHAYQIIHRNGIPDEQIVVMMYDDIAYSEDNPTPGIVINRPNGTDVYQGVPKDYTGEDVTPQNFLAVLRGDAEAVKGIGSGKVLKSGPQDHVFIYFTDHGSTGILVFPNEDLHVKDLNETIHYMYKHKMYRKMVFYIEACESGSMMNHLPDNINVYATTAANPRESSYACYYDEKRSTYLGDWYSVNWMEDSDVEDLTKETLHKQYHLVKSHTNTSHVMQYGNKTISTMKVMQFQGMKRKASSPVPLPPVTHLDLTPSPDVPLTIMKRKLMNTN
r1 after activation higher than Dotarem [4],r1 after activation higher than before activation [4],r1 relaxivity upon caspase-3 activation [4],r1 relaxivity without caspase-3 activation [4] [mM⁻¹ s⁻¹],r1 after activation higher than before activation ([4]; listed as Gd-based MRI probe) [%],r1 relaxivity upon caspase-3 activation ([4]; listed as Gd-based MRI probe) [mM⁻¹ s⁻¹],T1 value after incubation with legumain [5],SMILES,time of maximum tumor fluorescence after administration ([1]; 5 nmol i.v.) [h],"correlation (r) of maximum tumor fluorescence with maximum tumor size change ([1]; 3×DOX-treated mice, 1 h after probe)","increase in fluorescence signal in DOX-treated tumors compared to saline-treated ([1]; 4 h after 5 nmol probe, 3×DOX) [fold]",activation by legumain [2],increase in Cy5.5 intensity of DOX-induced apoptotic cells compared to no probe or control probes [3] [fold]
,,,,,,,CCSSC[C@@H](NC(=O)[C@H](CC(=O)O)NC(=O)[C@@H](NC(=O)[C@H](CCC(=O)O)NC(=O)[C@H](CC(=O)O)NC(C)=O)C(C)C)C(=O)N[C@@H](CCCCNC(=O)CCCCCN1C(=CC=CC=CC2=[N+](CC)c3ccc4c(S(=O)(=O)[O-])cc(S(=O)(=O)O)cc4c3C2(C)C)C(C)(C)c2c1ccc1c(S(=O)(=O)O)cc(S(=O)(=O)O)cc21)C(=O)Nc1ccc2nc(C3=N[C@@H](C(=O)NCCCOc4ccc5nc(C#N)ccc5c4)CS3)sc2c1 [C-SNAF],1,−0.9,1.6,neither lysosomal cysteine proteases cathepsin B nor legumain could significantly activate,~4
about 510%,about 106%,approximately 29.3 mM^−1 s^−1,14.2,106,29.3,No reduced T1 value,CCSSCC(NC(=O)C(CC(=O)O)NC(=O)C(NC(=O)C(CCC(=O)O)NC(=O)C(CC(=O)O)NC(C)=O)C(C)C)C(=O)NC(CCCCNC(=O)CN1CCN(CC(=O)[O-])CCN(CC(=O)[O-])CCN(CC(=O)[O-])CC1)C(=O)Nc1ccc2nc(C3=NC(C(=O)NCCCOc4ccc5nc(C#N)ccc5c4)CS3)sc2c1.[Gd+3] (stereo not drawn) [probe 15] (Ac-DEVDC(SEt)K(DOTA)[X1]-X2; configuration not given here),,,,,
